The values below come from EPA's ToxRefDB 2.

As a reminder, the LOAEL is the lowest tested level that showed an adverse finding. The NOAEL is the highest tested level that showed no adverse finding.

In data set [1] the test system is rat. As to conditions: Prenatal developmental toxicity study, other, Oral, Gavage/Intubation, dose end: 15 GD.
The subject of data set [2] is rat. As to conditions: Subchronic oral toxicity in rodents, other, Feed, dose end: 13 week, group: systemic, systemic / in life observation / body weight / body weight gain + systemic / pathology microscopic / liver / infiltration cellular + ….
For data set [3], the system named is dog. As to conditions: Subchronic oral toxicity in nonrodent, beagle, Feed, dose end: 13 week, group: systemic, systemic / in life observation / body weight / body weight gain + systemic / in life observation / food consumption / food consumption.
For data set [4], the system named is rat. The following applies: Prenatal developmental toxicity study; sprague dawley; Oral; Gavage/Intubation; dose end: 17 GD; group: maternal; systemic / in life observation / body weight / body weight + systemic / in life observation / body weight / body weight gain + systemic / in….
Data set [5] relates to rabbit. The following applies: Prenatal developmental toxicity study, new zealand white, Oral, Gavage/Intubation, dose end: 18 GD.
Data set [6] has as its system rat. The following applies: Prenatal developmental toxicity study; sprague dawley; Oral; Gavage/Intubation; dose end: 17 GD; group: maternal; systemic / in life observation / body weight / body weight + systemic / in life observation / body weight / body weight gain.
A further data set concerns mouse. As to conditions: Carcinogenicity, cd1, Oral, Water, dose end: 104 week, group: systemic.
The subject of data set [7] is rat. As to conditions: Multigenerational reproductive toxicity study, other, Oral, Gavage/Intubation, dose end: 2 generation.
Data set [8] deals with dog. The following applies: Chronic toxicity, beagle, Oral, Gavage/Intubation, dose end: 52 week, group: systemic.
The subject of data set [9] is rat. As to conditions: Chronic toxicity, other, Oral, Gavage/Intubation, dose end: 91 week, group: systemic.
Data set [10] has as its system rabbit. The following applies: Prenatal developmental toxicity study, new zealand white, Oral, Gavage/Intubation, dose end: 19 GD.
Data set [11] has as its system rat. The following applies: Prenatal developmental toxicity study, other, Oral, Gavage/Intubation, dose end: 15 GD. This is another data set of the same source.
The mark [12] stands for this setting: group: developmental, developmental / developmental malformation / bone / unossified + developmental / developmental malformation / bone / full supernumerary + ….
The mark [13] stands for this setting: group: maternal, systemic / in life observation / body weight / body weight gain.
Setting [14] is: group: maternal, systemic / in life observation / body weight / body weight gain + systemic / in life observation / body weight / body weight + systemic / in….
The mark [15] stands for this setting: group: developmental, systemic / in life observation / body weight / fetal weight.
Where [16] appears, read: group: maternal, systemic / in life observation / clinical signs / defecation + systemic / in life observation / mortality / mortality.
Where [17] appears, read: group: maternal, systemic / in life observation / clinical signs / defecation + systemic / in life observation / mortality / mortality + systemic / in life ….
[18] abbreviates: systemic / in life observation / body weight / body weight gain.
[19] abbreviates: systemic / in life observation / mortality / mortality + systemic / pathology microscopic / kidney / degeneration + systemic / pathology ….
[20] abbreviates: group: offspring, developmental / offspring survival late / viability index / viability index + systemic / in life observation / body weight / offspring (pup….
The mark [21] stands for this setting: group: parental, systemic / in life observation / body weight / body weight + systemic / in life observation / body weight / body weight gain + systemic / in….
Where [22] appears, read: systemic / clinical chemistry / cholesterol / cholesterol + systemic / hematology / mean corpuscular (cell) volume (mcv) / mean corpuscular….
Setting [23] is: systemic / hematology / mean corpuscular hemoglobin (mch) / mean corpuscular hemoglobin (mch).
Where [24] appears, read: systemic / clinical chemistry / glucose / glucose.
The mark [25] stands for this setting: group: developmental, developmental / developmental malformation / brain / [other] + developmental / developmental malformation / general / crown-rump length + ….
[26] abbreviates: group: maternal, systemic / organ weight / uterus / nos.
[27] abbreviates: group: developmental, developmental / developmental malformation / bone / bipartite ossification + developmental / developmental malformation / bone / thickened….

For `O=C(O)COc1ccc(Cl)cc1` [4-Chlorophenoxyacetic acid], the lowest-observed-adverse-effect level (LOAEL) in the data set with rat [1] (group: developmental, developmental / developmental malformation / bone / unossified) turned out to be 300 mg/kg/day; in the data set on rat [1] (setting [13]), 300 mg/kg/day; in the data set with rat [2], 517 mg/kg/day; in the data set on dog [3], 17.4 mg/kg/day. Moreover, the LEL is 300 mg/kg/day in the data set with rat [1] (group: developmental, developmental / developmental malformation / bone / unossified + developmental / developmental malformation / bone / full supernumerary); 300 mg/kg/day in the data set on rat [1] (setting [13]); 517 mg/kg/day in the data set with rat [2]; 17.4 mg/kg/day with dog [3]. The NEL in the data set on rat [1] (setting [12]) was 150 mg/kg/day; with rat [1] (setting [14]), 150 mg/kg/day; in the data set on rat [2] it was 132 mg/kg/day; in the data set with dog [3], 4.05 mg/kg/day. Further, the NOAEL with rat [1] (setting [12]) is 150 mg/kg/day; in the data set with rat [1] (setting [14]) it was 150 mg/kg/day; in the data set on rat [2], 132 mg/kg/day; in the data set with dog [3] it was 4.05 mg/kg/day.
On to `NCc1cccc(C2CCN(C(=O)c3ccc(C#Cc4ccccc4F)o3)CC2)c1` [AVE5638], for which the LEL in the data set with rat [4] is 40 mg/kg/day; in the data set with rabbit [5] (setting [15]), 225 mg/kg/day; in the data set on rabbit [5] (setting [16]) it was 100 mg/kg/day; in the data set on rat [6], 40 mg/kg/day. Besides, the LOAEL stood at 40 mg/kg/day in the data set on rat [4], 225 mg/kg/day in the data set with rabbit [5] (setting [15]), 100 mg/kg/day in the data set with rabbit [5] (setting [16]) and 40 mg/kg/day in the data set on rat [6]. For the same compound, the NEL with rat [4] was determined as 5 mg/kg/day; with rabbit [5] (setting [15]), 100 mg/kg/day; in the data set with rabbit [5] (setting [17]), 25 mg/kg/day; in the data set with rat [6], 5 mg/kg/day. The NOAEL with rat [4] stood at 5 mg/kg/day; in the data set on rabbit [5] (setting [15]), 100 mg/kg/day; in the data set on rabbit [5] (setting [17]), 25 mg/kg/day; in the data set with rat [6] it was 5 mg/kg/day.
Turning to `N#CN` [Cyanamide], the LEL with mouse (setting [18]) was found to be 5 mg/kg/day; in the data set on rat [7] (setting [20]), 1.25 mg/kg/day; in the data set on rat [7] (setting [21]), 3.75 mg/kg/day; in the data set on dog [8] (setting [23]) it was 0.4 mg/kg/day; in the data set with rat [9] (setting [24]) it was 1 mg/kg/day; with rabbit [10] (group: developmental, developmental / developmental malformation / eye / retina fold) it was 12 mg/kg/day. Further, the LEL in the data set on rabbit [10] (setting [26]) came out at 4 mg/kg/day; in the data set on rat [11] (setting [27]), 90 mg/kg/day; in the data set with rat [11] (setting [13]), 10 mg/kg/day. The NEL with mouse (setting [18]) is under 5 mg/kg/day; in the data set on rat [7] (setting [20]), under 1.25 mg/kg/day; in the data set on rat [7] (setting [21]), 1.25 mg/kg/day; in the data set on dog [8] (setting [23]), under 0.4 mg/kg/day; with rat [9] (setting [24]), under 1 mg/kg/day; with rabbit [10] (setting [25]) it was 4 mg/kg/day. Besides, the NEL in the data set with rabbit [10] (setting [26]) was under 4 mg/kg/day; with rat [11] (setting [27]), 30 mg/kg/day; in the data set on rat [11] (setting [13]) it was under 10 mg/kg/day. The lowest observed adverse effect level (LOAEL) worked out at 16.9 mg/kg/day in the data set with mouse (setting [19]); 1.25 mg/kg/day in the data set with rat [7] (setting [20]); 3.75 mg/kg/day with rat [7] (setting [21]); 2 mg/kg/day in the data set on dog [8] (setting [22]); 7.5 mg/kg/day in the data set on rat [9] (systemic / in life observation / body weight / body weight gain + systemic / pathology microscopic / thyroid gland / colloid content); 36 mg/kg/day with rabbit [10] (setting [25]). The figures for the LOAEL in the data set on rabbit [10] (setting [13]), in the data set on rat [11] (setting [27]) and in the data set with rat [11] (setting [13]) were 12 mg/kg/day, 90 mg/kg/day and 10 mg/kg/day, respectively. Further, the NOAEL in the data set with mouse (setting [19]) is 6.9 mg/kg/day; in the data set on rat [7] (setting [20]), under 1.25 mg/kg/day; in the data set on rat [7] (setting [21]), 1.25 mg/kg/day; in the data set on dog [8] (setting [22]) it was 0.4 mg/kg/day; in the data set with rat [9] (systemic / in life observation / body weight / body weight gain + systemic / pathology microscopic / thyroid gland / colloid content + …), 2.5 mg/kg/day; in the data set on rabbit [10] (setting [25]), 12 mg/kg/day. Also, the NOAEL with rabbit [10] (group: maternal, systemic / organ weight / uterus / nos + systemic / in life observation / body weight / body weight gain + reproductive / reproductive …) is 4 mg/kg/day; with rat [11] (setting [27]), 30 mg/kg/day; in the data set with rat [11] (setting [13]), under 10 mg/kg/day.
